The series is described as follows: relative stability of the polymorphic forms of Compound A. In kind it is physicochemical.

Data on 2 molecules can be found in US20050222178A1, “Process” (priority 2002, published 2005).

For `CC(C)(C)c1nnc([C@H]2O[C@@H](n3cnc4c(Nc5ccc(Cl)cc5F)ncnc43)[C@H](O)[C@@H]2O)o1` [Polymorph I, (2S,3S,4R,5R)-2-(5-tert-butyl-[1,3,4]-oxadiazol-2-yl)-5-[6-(4-chloro-2-fluorophenylamino)-9H-purin-9-yl]-tetrahydrofuran-3,4-diol], the “stability relative to the other polymorph” value (at ambient temperatures, for example 15-20° C.) is “enhanced stability over Polymorph II”.

On to `CC(C)(C)c1nnc([C@H]2O[C@@H](n3cnc4c(Nc5ccc(Cl)cc5F)ncnc43)[C@H](O)[C@@H]2O)o1` [Polymorph II, (2S,3S,4R,5R)-2-(5-tert-butyl-[1,3,4]-oxadiazol-2-yl)-5-[6-(4-chloro-2-fluorophenylamino)-9H-purin-9-yl]-tetrahydrofuran-3,4-diol], for which the “stability relative to the other polymorph” value (at elevated temperatures, for example temperatures in excess of 70° C.) is reported as “enhanced stability over Polymorph I”.
